The results in this text go back to patent publication US8362000B2, “Azetidinyl diamides as monoacylglycerol lipase inhibitors” (Janssen Pharmaceutica NV, priority 2009, dated 2013).

Changes are numbered by the printed parent chain. Where two headings read alike, the source gives them in different places.

In assay [1] the target is T1, purified wild type MGL (wt-MGLL 6H-11-313) (Homo sapiens, UniProt Q99685).
T1 sequence (Q99685 1-303): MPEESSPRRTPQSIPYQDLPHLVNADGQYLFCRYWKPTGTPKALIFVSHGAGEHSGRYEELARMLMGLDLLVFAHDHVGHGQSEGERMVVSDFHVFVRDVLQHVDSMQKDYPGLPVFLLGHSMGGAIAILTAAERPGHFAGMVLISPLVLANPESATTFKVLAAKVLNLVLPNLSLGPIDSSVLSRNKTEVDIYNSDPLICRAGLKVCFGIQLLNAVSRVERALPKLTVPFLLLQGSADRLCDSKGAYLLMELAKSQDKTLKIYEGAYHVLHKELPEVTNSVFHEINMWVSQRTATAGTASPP

The target in the next assay is T2, mutant MGL (Homo sapiens, UniProt Q99685, L169S/L176S).
T2 sequence (Q99685 1-303 L169S/L176S): T1 sequence (Q99685 1-303) with L169S, L176S
Description: MGL ThermoFluor assay - mutant. The format is binding. Background: In DSF a fluorescence change marks the thermal transition of the protein.

The target of a further assay is T3, MGL (Rattus norvegicus, UniProt Q8R431).
T3 construct: one g rat brain was homogenized using a Polytron homogenizer; from tissue; host or cells: rat brain homogenate
T3 sequence (Q8R431 1-303): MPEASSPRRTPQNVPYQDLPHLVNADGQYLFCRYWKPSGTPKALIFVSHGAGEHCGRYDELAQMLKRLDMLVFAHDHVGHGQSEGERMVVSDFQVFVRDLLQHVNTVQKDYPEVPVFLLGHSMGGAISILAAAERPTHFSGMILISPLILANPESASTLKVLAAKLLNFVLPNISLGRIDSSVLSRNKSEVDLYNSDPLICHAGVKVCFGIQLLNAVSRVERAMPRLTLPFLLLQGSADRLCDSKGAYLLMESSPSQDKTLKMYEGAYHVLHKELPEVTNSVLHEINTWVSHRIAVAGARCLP
Briefly: 2-AG accumulation assay in rat brain homogenate. The following applies: rat brain homogenate; compound 1 μM; 2-AG accumulation as percent of vehicle; read-out: Rat Brain 2AG % VehCntrl (%) @ 1 μM. In kind it is biochemical.

Where [2] appears, read: compound concentration measured by qNMR, read-out: MGL mutant ThermoFluor qKd (using qNMR conc.).
The mark [3] stands for this setting: ThermoFluor thermal stability binding assay, read-out: MGL mutant ThermoFluor Kd.
Setting [4] is: ThermoFluor concentration-response, read-out: MGL mutant ThermoFluor Kd.
The mark [5] stands for this setting: ThermoFluor, compound concentration measured by qNMR, read-out: MGL mutant ThermoFluor qKd (μM) (using qNMR conc.).
Setting [6] is: ThermoFluor, compound concentration measured by qNMR, read-out: MGL mutant ThermoFluor qKd (using qNMR conc.).

In turn, `O=C(c1cc(F)c2c(ccn2-c2ccc(F)cc2)c1)N1CC(N2CCN(C(=O)c3cscn3)CC2)C1` [Cpd 1111] registered an IC50 in assay [1] of 16 nM. Further, the Kd on mutant MGL (setting [2]) turned out to be 0.009 µM. In addition, on MGL, the 2-AG accumulation, % of vehicle control at 1 µM stood at 508%.
In turn, `Cc1c(C(=O)N2CC(N3CCN(C(=O)c4ccccc4)CC3)C2)sc2ccc(C(F)(F)F)cc12` [Cpd 504] showed an IC50 in assay [1] of 10 nM. Moreover, the Kd at mutant MGL (setting [3]) is 0.024 µM. The 2-AG accumulation, % of vehicle control at 1 µM on MGL came out at 178%.
Consider `Cc1c(C(=O)N2CC(N3CCN(C(=O)c4nccs4)CC3)C2)cccc1-c1ccccc1` [Cpd 1234], for which the IC50 in assay [1] was 356 nM. For the same compound, the Kd on mutant MGL (setting [4]) turned out to be 0.394 µM. For the same compound, the 2-AG accumulation, % of vehicle control at 1 µM at MGL was determined as 226%.
With `O=C(c1nccs1)N1CCN(C2CN(C(=O)c3sc4ccc(-c5ccccc5)cc4c3F)C2)CC1` [Cpd 1315, 1-{1-[(3-Fluoro-5-phenyl-1-benzothiophen-2-yl)carbonyl]azetidin-3-yl}-4-(1,3-thiazol-2-ylcarbonyl)piperazine], in assay [1], the IC50 is under 5 nM. For the same compound, the Kd on mutant MGL (setting [4]) is 0.002 µM. For the same compound, at MGL, the 2-AG accumulation, % of vehicle control at 1 µM was found to be 486%.
As for `O=C(c1nccs1)N1CCN(C2CN(C(=O)c3sc4cc(F)c(C(F)(F)F)cc4c3Cl)C2)CC1` [Cpd 901, 1-(1-{[3-Chloro-6-fluoro-5-(trifluoromethyl)-1-benzothiophen-2-yl]carbonyl}azetidin-3-yl)-4-(1,3-thiazol-2-ylcarbonyl)piperazine], in assay [1], the IC50 was under 5 nM. In addition, the Kd on mutant MGL (setting [5]) is 0.001 µM. Besides, at MGL, the 2-AG accumulation, % of vehicle control at 1 µM is 816%.
For the compound `O=C(c1ccc(S(=O)(=O)c2cccc(C(F)(F)F)c2)cc1)N1CC(N2CCN(C(=O)c3nccs3)CC2)C1` [Cpd 651], the IC50 in assay [1] amounted to 7 nM. In addition, the Kd on mutant MGL (setting [4]) was found to be 0.025 µM. Besides, the 2-AG accumulation, % of vehicle control at 1 µM on MGL is 258%.
For the compound `O=C(c1cscn1)N1CCN(C2CN(C(=O)c3sc4cc(F)c(C(F)(F)F)cc4c3Cl)C2)CC1` [Cpd 659], the IC50 in assay [1] was 9 nM. For the same compound, the Kd on mutant MGL (setting [5]) was found to be 0.006 µM. In addition, the 2-AG accumulation, % of vehicle control at 1 µM at MGL is 576%.
Take `N#Cc1ccc(-c2ccc(C(=O)N3CC(N4CCN(C(=O)c5nccs5)CC4)C3)cc2)cc1` [Cpd 167, 4′-({3-[4-(1,3-Thiazol-2-ylcarbonyl)piperazin-1-yl]azetidin-1-yl}carbonyl)biphenyl-4-carbonitrile]: the IC50 in assay [1] was 15.2 nM. Moreover, the Kd on mutant MGL (setting [4]) turned out to be 0.0558 µM. Further, on MGL, the 2-AG accumulation, % of vehicle control at 1 µM was determined as 481%.
In assay [1], `O=C(c1ccc2c(ccn2-c2ccc(C(F)(F)F)nc2)c1)N1CC(N2CCN(C(=O)c3nccs3)CC2)C1` [Cpd 1312, 5-({3-[4-(1,3-Thiazol-2-ylcarbonyl)piperazin-1-yl]azetidin-1-yl}carbonyl)-1-[6-(trifluoromethyl)pyridin-3-yl]-1H-indole] showed an IC50 of under 5 nM. For the same compound, the Kd at mutant MGL (setting [6]) turned out to be 0.008 µM. For the same compound, at MGL, the 2-AG accumulation, % of vehicle control at 1 µM is 963%.
`O=C(c1ccc2c(c1)CCN(c1ncccn1)C2)N1CC(N2CCN(C(=O)c3nccs3)CC2)C1` [Cpd 668] yielded an IC50 in assay [1] of 15 nM. Also, at mutant MGL (setting [3]), the Kd was determined as 0.025 µM. In addition, on MGL, the 2-AG accumulation, % of vehicle control at 1 µM amounted to 679%.
In the case of `N#Cc1ccccc1-n1ccc2cc(C(=O)N3CC(N4CCN(C(=O)c5cscn5)CC4)C3)ccc21` [Cpd 1182], half-maximal inhibition in assay [1] (IC50) was put at 79 nM. In addition, on mutant MGL (setting [5]), the Kd was found to be 0.21 µM. The 2-AG accumulation, % of vehicle control at 1 µM on MGL worked out at 547%.
In assay [1], `O=C(c1ccccc1)N1CCN(C2CN(C(=O)c3ccc(Oc4ncc(C(F)(F)F)cc4Cl)cc3)C2)CC1` [Cpd 507] showed an IC50 of 52 nM. For the same compound, the Kd at mutant MGL (setting [4]) is 0.317 µM. Also, at MGL, the 2-AG accumulation, % of vehicle control at 1 µM was 190%.
For the compound `O=C(c1nccs1)N1CCN(C2CN(C(=O)c3cc4ccn(-c5ccc(F)cc5)c4cc3F)C2)CC1` [Cpd 1349], the IC50 in assay [1] is under 5 nM. For the same compound, the Kd amounted to 0.005 µM at mutant MGL (setting [4]) and 0.006 µM on mutant MGL (setting [2]). For the same compound, the 2-AG accumulation, % of vehicle control at 1 µM on MGL came to 846%.
Compound `O=C(c1ccc(F)cc1)c1c[nH]c2cc(C(=O)N3CC(N4CCN(C(=O)c5nccs5)CC4)C3)ccc12` [Cpd 1025] had an IC50 in assay [1] of 19 nM. For the same compound, the Kd on mutant MGL (setting [2]) is 0.066 µM. In addition, on MGL, the 2-AG accumulation, % of vehicle control at 1 µM is 851%.
Compound `O=C(c1nccs1)N1CCN(C2CN(C(=O)C3CCC(c4ccc(Cl)cc4)CC3)C2)CC1` (stereo not shown) [Cpd 637] returned an IC50 in assay [1] of 41 nM. Besides, at mutant MGL (setting [4]), the Kd is 0.053 µM. For the same compound, the 2-AG accumulation, % of vehicle control at 1 µM at MGL worked out at 272%.
In assay [1], `O=C(c1cccc(-c2ccccc2C(F)(F)F)c1)N1CC(N2CCN(C(=O)c3cscn3)CC2)C1` [Cpd 1185] had an IC50 of 88 nM. Also, the Kd at mutant MGL (setting [4]) came out at 1.32 µM. Further, the 2-AG accumulation, % of vehicle control at 1 µM on MGL amounted to 241%.
Take `O=C(c1ccc2c(c1)CCCN2)N1CC(N2CCN(C(=O)c3nccs3)CC2)C1` [Cpd 357, 6-(3-[4-(1,3-Thiazol-2-ylcarbonyl)piperazin-1-yl]-azetidin-1-yl)carbonyl-1,2,3,4-tetrahydroquinoline]: the IC50 in assay [1] came to 3750 nM. Also, the Kd on mutant MGL (setting [3]) turned out to be 0.238 µM. Besides, the 2-AG accumulation, % of vehicle control at 1 µM on MGL turned out to be 152%.
With `O=C(c1ccccc1)N1CCN(C2CN(C(=O)c3ccc4c(ccn4-c4ccc(OC(F)(F)F)cc4)c3)C2)CC1` [Cpd 573], half-maximal inhibition in assay [1] (IC50) was put at 46 nM. Further, the Kd on mutant MGL (setting [5]) worked out at 0.1 µM. The 2-AG accumulation, % of vehicle control at 1 µM on MGL amounted to 277%.
`O=C(c1ccc(OCc2ccc3ccccc3n2)cc1)N1CC(N2CCN(C(=O)C(F)(F)F)CC2)C1` [Cpd 968] yielded an IC50 in assay [1] of 19 nM. The Kd on mutant MGL (setting [2]) is 1.46 µM. The 2-AG accumulation, % of vehicle control at 1 µM at MGL is 360%.
`Cc1cc(C(=O)N2CC(N3CCN(C(=O)c4nccs4)CC3)C2)ccc1-c1ccccc1` [Cpd 1322, 1-{1-[(2-Methylbiphenyl-4-yl)carbonyl]azetidin-3-yl}-4-(1,3-thiazol-2-ylcarbonyl)piperazine] yielded an IC50 in assay [1] of under 5 nM. At mutant MGL (setting [4]), the Kd worked out at 0.002 µM. At MGL, the 2-AG accumulation, % of vehicle control at 1 µM was 457%.
Turning to `O=C(Nc1ccc(C(=O)N2CC(N3CCN(C(=O)c4nccs4)CC3)C2)cc1)c1cc(F)ccc1Cl` [Cpd 702], 303 nM corresponded to half-maximal inhibition in assay [1] (IC50). On mutant MGL (setting [6]), the Kd is 0.207 µM. Further, the 2-AG accumulation, % of vehicle control at 1 µM at MGL is 848%.
In assay [1], `N#Cc1cccc(-c2ccc(C(=O)N3CC(N4CCN(C(=O)c5nccs5)CC4)C3)cc2)c1` [Cpd 161, 4′-({3-[4-(1,3-Thiazol-2-ylcarbonyl)piperazin-1-yl]azetidin-1-yl}carbonyl)biphenyl-3-carbonitrile] gave an IC50 of 11.7 nM. Moreover, the Kd on mutant MGL (setting [4]) came to 0.0112 µM. Besides, the 2-AG accumulation, % of vehicle control at 1 µM at MGL turned out to be 335%.
`O=C(c1ccc(-c2ccc(C(F)(F)F)s2)cc1)N1CC(N2CCN(C(=O)c3nccs3)CC2)C1` [Cpd 1361, 1-(1,3-Thiazol-2-ylcarbonyl)-4-[1-({4-[5-(trifluoromethyl)thiophen-2-yl]phenyl}carbonyl)azetidin-3-yl]piperazine]: in assay [1], the IC50 was under 5 nM. Also, the Kd at mutant MGL (setting [4]) worked out at 0.003 µM. Moreover, the 2-AG accumulation, % of vehicle control at 1 µM on MGL was 994%.
The compound `Cn1ccc2cc(C(=O)N3CC(N4CCN(C(=O)c5nccs5)CC4)C3)cc(-c3cccc(C(F)(F)F)c3)c21` [Cpd 1060] registered an IC50 in assay [1] of 6 nM. On mutant MGL (setting [5]), the Kd stood at 0.032 µM. For the same compound, the 2-AG accumulation, % of vehicle control at 1 µM on MGL came out at 671%.
As to `O=C(c1ccc(-c2ccccc2)cc1)N1CCN(C2CN(C(=O)c3ccns3)C2)CC1` [Cpd 1235, 1-(Biphenyl-4-ylcarbonyl)-4-[1-(isothiazol-5-ylcarbonyl)azetidin-3-yl]piperazine], the IC50 in assay [1] was found to be 360 nM. Moreover, the Kd on mutant MGL (setting [4]) is 0.124 µM. The 2-AG accumulation, % of vehicle control at 1 µM on MGL came to 100%.
Taken in the same sequence, the figures for `Cc1c(C(=O)N2CC(N3CCN(C(=O)c4nccs4)CC3)C2)[nH]c2ccc(Cl)cc12` [Cpd 688, 5-Chloro-3-methyl-2-({3-[4-(1,3-thiazol-2-ylcarbonyl)piperazin-1-yl]azetidin-1-yl}carbonyl)-1H-indole] were 44 nM, 0.046 µM and 373%.
In assay [1], `Cc1ccc(-c2nnc(-c3ccc(C(=O)N4CC(N5CCN(C(=O)c6nccs6)CC5)C4)cc3)o2)cc1` [Cpd 1156] had an IC50 of 41 nM. Besides, on mutant MGL (setting [4]), the Kd was determined as 0.09 µM. For the same compound, on MGL, the 2-AG accumulation, % of vehicle control at 1 µM amounted to 681%.

A word on the IC50: it is the concentration that inhibits the measured activity by half.
